According to US7935705B2, “N-alkylated rifampin” (Medtronic, Inc., priority 2007, dated 2011):

Legend:
[1] = test system: Staphylococcus aureus (ATCC 29213); assay: Disc zone of inhibition on agar plates coated with S. aureus; format: cell-based; conditions: for zone of inhibition: disc containing 5 μg, agar plates coated with S. aureus ATCC 29213, 35° C. for 24 hours
Description: The ability of the compound of Formula II to inhibit growth of Staphylococcus aureus (ATCC 29213) was determined in vitro. Briefly, agar plates were coated with S. aureus and discs containing 5 μg of rifampin and 5 μg of a compound of Formula II were placed on the coated plates. The plates were incubated at 35° C. for 24 hours and the zones of inhibition of the rifampin and the compound of Formula II were determined. The zone of inhibition for the rifampin loaded disc was 28 mm. The zone of inhibition for the disc with a compound of Formula II was 18 mm.

[2] = after five EtO sterilization cycles; polymeric articles; cited from earlier work
[3] = test system: Staphylococcus aureus (ATCC 29213); assay: Minimum Inhibitory Concentration (MIC) evaluation; format: cell-based; conditions: ATCC29213, S. aureus, in vitro, read-out: Baseline MIC

Which zone of inhibition [1] does the source give for “5,6,9,17,19,21-Hexahydroxy-23-methoxy-2,4,12,16,18,20,22-heptamethyl-8-[N-(4-methyl-1-piperazinyl)formimidoyl]-2,7-(epoxypentadeca[1,11,13]trienimino)-naphtho[2,1-b]furan-1,11(2H)-dione 21-acetate [rifampin]” here?
Its zone of inhibition is 28 mm.

And the rifampin recoverable [2]?
The rifampin recoverable was 5%.

What does the source list for COC1/C=C/OC2(C)Oc3c(C)c(O)c4c(O)c(c(/C=N/N5CC[N+](C)(CC[O-])CC5)c(O)c4c3C2=O)NC(=O)/C(C)=C\C=C\C(C)C(O)C(C)C(O)C(C)C(OC(C)=O)C1C (centres unmarked) [compound of Formula II]?
zone of inhibition [1]: 18 mm; activity against Staphlococcus aureus ([1]; qualitative statement in summary): has activity; MIC [3]: 2 to 4 µg/mL
